Assay type in all cases: in vivo
Assay [1] concerns Scirpus juncoides. Kind of assay: Herbicidal efficacy on paddy field weeds of pre-emergence stage (Pre), Test Example 1. The following applies: 1000 g/ha as active ingredient, examined after 21 days. The essentials: (§1)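 Clay-loam pots sown with Scirpus juncoides, covered with soil containing Lindernia procumbens seed, flooded to 5 cm. Next day formulated compound applied dropwise to water at 1000 g/ha a.i. Greenhouse-grown; growth inhibition versus untreated scored 0–5 after 21 days.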

For assay [2], the system named is Lindernia procumbens. The description is as above. The following applies: 1000 g/ha as active ingredient, examined after 21 days. The essentials: as §1
Assay [3] concerns Scirpus juncoides. Kind of assay: Herbicidal effect on paddy field weeds of post-emergence stage (Post), Test Example 2. The following applies: one-leaf stage, 1000 g/ha as active ingredient, examined after 21 days. An outline of the steps:
(§2)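 Scirpus juncoides and Echinochloa crus-galli sown in clay loam, with Lindernia procumbens seed in the soil cover, under 5 cm flooding in greenhouse. At one-leaf stage, 1000 g/ha active ingredient applied to pot water. Efficacy scored visually 0–5 against untreated plants at 21 days after treatment.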

For assay [4], the system named is Lindernia procumbens. The description is as above. To be noted: one-leaf stage, 1000 g/ha as active ingredient, examined after 21 days. An outline of the steps: as §2
Assay [5] concerns Echinochloa crus-galli. Described as above. To be noted: one-leaf stage, 1000 g/ha as active ingredient, examined after 21 days. An outline of the steps:
as §2

The structures appear in SMILES notation.

`CCCCOC(=O)N(c1ccccc1CN1CC(C)(C)COC1=O)S(=O)(=O)C(F)(F)F` [Compound 1-27]: in assay [1], the “Scirpus juncoides pre (herbicidal effect)” value (“Scirpus juncoides pre” for short) is 4 (90%-99% herbicidal effect, phytotoxicity). In addition, in assay [2], the “Lindernia procumbens pre (herbicidal effect)” value (from here on “Lindernia procumbens pre”) is on record as 4 (90%-99% herbicidal effect, phytotoxicity). In addition, the “Scirpus juncoides post (herbicidal effect)” value (“Scirpus juncoides post” for short) in assay [3] was 4 (90%-99% herbicidal effect, phytotoxicity). Besides, the “Lindernia procumbens post (herbicidal effect)” value (shortened to “Lindernia procumbens post”) in assay [4] was 4 (90%-99% herbicidal effect, phytotoxicity). Also, the “Echinochloa crus-galli post (herbicidal effect)” value (shortened to “Echinochloa crus-galli post”) in assay [5] is listed as 4 (90%-99% herbicidal effect, phytotoxicity).
For `CC(C)COC(=O)N(c1ccccc1CN1CC(C)(C)COC1=O)S(=O)(=O)C(F)(F)F` [Compound 1-28], the “Scirpus juncoides pre” value in assay [1] is 4 (90%-99% herbicidal effect, phytotoxicity). Also, the “Lindernia procumbens pre” value in assay [2] is 4 (90%-99% herbicidal effect, phytotoxicity). Further, the “Scirpus juncoides post” value in assay [3] is listed as 4 (90%-99% herbicidal effect, phytotoxicity). In assay [4], the “Lindernia procumbens post” value is reported as 4 (90%-99% herbicidal effect, phytotoxicity). Besides, the “Echinochloa crus-galli post” value in assay [5] is 4 (90%-99% herbicidal effect, phytotoxicity).
`CCOC(=O)N(c1ccccc1CN1CC(C)(C)COC1=S)S(=O)(=O)C(F)(F)F` [Compound 1-36]: the “Scirpus juncoides pre” value in assay [1] is 4 (90%-99% herbicidal effect, phytotoxicity). The “Lindernia procumbens pre” value in assay [2] was 4 (90%-99% herbicidal effect, phytotoxicity). Besides, the “Scirpus juncoides post” value in assay [3] is on record as 4 (90%-99% herbicidal effect, phytotoxicity). In assay [4], the “Lindernia procumbens post” value is listed as 4 (90%-99% herbicidal effect, phytotoxicity). The “Echinochloa crus-galli post” value in assay [5] is 4 (90%-99% herbicidal effect, phytotoxicity).
On to `CC(C)COC(=O)N(c1ccccc1CN1CC(C)(C)COC1=S)S(=O)(=O)C(F)(F)F` [Compound 1-39], for which, in assay [1], the “Scirpus juncoides pre” value is 4 (90%-99% herbicidal effect, phytotoxicity). For the same molecule, the “Lindernia procumbens pre” value in assay [2] is on record as 4 (90%-99% herbicidal effect, phytotoxicity). Further, in assay [3], the “Scirpus juncoides post” value is given as 4 (90%-99% herbicidal effect, phytotoxicity). Also, the “Lindernia procumbens post” value in assay [4] is 4 (90%-99% herbicidal effect, phytotoxicity). Further, the “Echinochloa crus-galli post” value in assay [5] is given as 4 (90%-99% herbicidal effect, phytotoxicity).
Take `CC1(C)CCN(Cc2ccccc2NS(=O)(=O)C(F)(F)F)C(=O)O1` [Compound 1-45]: in assay [1], the “Scirpus juncoides pre” value is given as 4 (90%-99% herbicidal effect, phytotoxicity). In addition, the “Lindernia procumbens pre” value in assay [2] is given as 4 (90%-99% herbicidal effect, phytotoxicity). The “Scirpus juncoides post” value in assay [3] is 4 (90%-99% herbicidal effect, phytotoxicity). Also, the “Lindernia procumbens post” value in assay [4] is given as 4 (90%-99% herbicidal effect, phytotoxicity). The “Echinochloa crus-galli post” value in assay [5] is recorded as 4 (90%-99% herbicidal effect, phytotoxicity).
Consider `CCOC(=O)N(c1ccccc1CN1CCC(C)(C)OC1=O)S(=O)(=O)C(F)(F)F` [Compound 1-47], for which the “Scirpus juncoides pre” value in assay [1] is on record as 4 (90%-99% herbicidal effect, phytotoxicity). Also, in assay [2], the “Lindernia procumbens pre” value is 4 (90%-99% herbicidal effect, phytotoxicity). Moreover, in assay [3], the “Scirpus juncoides post” value was 4 (90%-99% herbicidal effect, phytotoxicity). In addition, the “Lindernia procumbens post” value in assay [4] is listed as 4 (90%-99% herbicidal effect, phytotoxicity). Also, the “Echinochloa crus-galli post” value in assay [5] is 4 (90%-99% herbicidal effect, phytotoxicity).
In the case of `CC(C)COC(=O)N(c1ccccc1CN1CCC(C)(C)OC1=O)S(=O)(=O)C(F)(F)F` [Compound 1-50], the “Scirpus juncoides pre” value in assay [1] is given as 4 (90%-99% herbicidal effect, phytotoxicity). The “Lindernia procumbens pre” value in assay [2] was 4 (90%-99% herbicidal effect, phytotoxicity). For the same molecule, the “Scirpus juncoides post” value in assay [3] is given as 4 (90%-99% herbicidal effect, phytotoxicity). Besides, the “Lindernia procumbens post” value in assay [4] was 4 (90%-99% herbicidal effect, phytotoxicity). Besides, the “Echinochloa crus-galli post” value in assay [5] is 4 (90%-99% herbicidal effect, phytotoxicity).

The record behind these values is patent US8048825B2, “Haloalkylsulfonanilide derivatives or salt thereof, herbicide comprising the derivatives as active ingredient, and use of the herbicide” (Nihon Nohyaku Co., Ltd., priority 2006, dated 2011).
